Values quoted from earlier work in patent US20150025006A1, “Pharmaceutical Combinations Including Anti-Inflammatory and Antioxidant Conjugates Useful for Treating Metabolic Disorders” (Genmedica Therapeutics SL, priority 2011, published 2015).

How the values were obtained:
[1] = system: Zucker fa/fa rats or ob/ob mice; details: 120 mg/kg/day, subcutaneous infusion, 3-4 weeks
human diabetic patients = details: 4.5 g/day of salsalate

| SMILES | anti-diabetic effects [1] | side effects, such as tinnitus, enhanced by (human diabetic patients) [%] |
| --- | --- | --- |
| O=C(O)c1ccccc1O [Salicylate] | anti-diabetic effects, reduction in fasting blood glucose, and glucose tolerance improvement |  |
| O=C(Oc1ccccc1C(=O)O)c1ccccc1O [salsalate] |  | 66 |
